What is called IC50 is the concentration needed to halve the response being measured. A low value points to inhibition by little substance. In general, EC50 refers to the concentration giving half of the maximal effect.

The target of assay [1] is T1, P. berghei apicoplast DNA polymerase (Pb-apPOL) (Plasmodium berghei, UniProt A0A509ALK1).
T1 sequence (A0A509ALK1 1182-1809): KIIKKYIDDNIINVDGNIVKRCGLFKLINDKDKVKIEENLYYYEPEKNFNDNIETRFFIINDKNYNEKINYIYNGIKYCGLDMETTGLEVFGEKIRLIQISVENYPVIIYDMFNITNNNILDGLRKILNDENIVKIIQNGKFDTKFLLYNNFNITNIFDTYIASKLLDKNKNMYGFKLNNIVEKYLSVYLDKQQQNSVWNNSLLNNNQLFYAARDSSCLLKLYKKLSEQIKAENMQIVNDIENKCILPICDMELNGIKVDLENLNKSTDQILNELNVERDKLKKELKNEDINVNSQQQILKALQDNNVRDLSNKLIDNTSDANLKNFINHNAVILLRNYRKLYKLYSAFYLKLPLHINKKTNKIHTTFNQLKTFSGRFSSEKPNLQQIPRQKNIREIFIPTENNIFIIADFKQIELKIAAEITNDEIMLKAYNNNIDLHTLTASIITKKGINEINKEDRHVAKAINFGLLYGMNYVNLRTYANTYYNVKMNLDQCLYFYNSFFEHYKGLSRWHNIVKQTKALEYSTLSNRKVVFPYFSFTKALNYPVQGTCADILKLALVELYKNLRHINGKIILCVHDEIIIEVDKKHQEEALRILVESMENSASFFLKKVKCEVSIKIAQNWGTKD
Nature of the assay: In vitro DNA polymerase inhibition assay, Pb-apPOL. Type of assay: biochemical. The settings on record: Table 2. As for the experimental part:
(§1) Codon-optimized, exonuclease-deficient Pf-apPOL was overexpressed in E. coli BL21 (DE3) and purified as described. The protein was dialysed against two, 1-liter changes of 20 mM Tris-HCl (pH 8.0), 400 mM NaCl, and 20% glycerol. Plasmodium bergei and Babesia bovis apPOLs (Pb-apPOL and Bb-apPOL, respectively) were codon-optimized, expressed, and purified as for Pf-apPOL[15]. Bacteriophage T4 DNA polymerase was purified as described. The DNA oligonucleotides used to make the high-throughput substrate were obtained from Integrated DNA Technologies. Deoxynucleotides were purchased from Strategene. All other materials came from Fisher Scientific.
The HT assay employs a molecular beacon, a stem-loop DNA template with a Cy3 dye and the Black Hole Quencher on the 3′ and 5′ ends of the DNA, respectively. Pf-apPOL concentration is based on a calculated absorptivity of ε280 = 56750 M^−1 cm^−1. Reactions were carried out at 25 °C, using Corning 3575 […] (well-volume, 20 µL). Assays testing for compound inhibition composed of reaction buffer (pH 7.9 in 50 mM potassium acetate, 20 mM Tris-acetate and 10 mM magnesium acetate), Pf-apPOL (20 nM), DNA substrate (20 nM), dNTPs (6 µM), and compound (10 µM in DMSO). The DNA and nucleotide substrates (dNTPs) were at concentrations of 20 nM and 6 µM, respectively, in the assay. Pf-apPOL was incubated in the reaction buffer with dNTPs and the compound of interest (10 µM, in the assay) at 25 °C for 10 min. The DNA substrate was then added and the reaction was allowed to proceed for 90 min at 25 °C.
In the above, Min is the average of fluorescence emission of the negative controls (substrate only), Max the average fluorescence emission from the positive controls (enzyme + substrate), and Test the emission from the assays in the presence of compounds (enzyme + compound + substrates). Dose-response confirmation assays were performed under similar conditions as the primary screen, but monitoring fluorescence at 10, 90, and 180 min. Tested concentrations of compounds were 2.5, 10, 20, 40, and 80 µM. The IC50 of each compound was determined using Equation (2): (2) […] Vmax/(1+ (I/IC50)^n)
We tested the ability of the 102 compounds to kill P. falciparum parasites cultured in human red blood cells. Due to the number of compounds, we used a single inhibitor concentration of 20 µM and performed experiments in triplicate. These single-dose assays identified 9 compounds that inhibited parasite growth by more than 50%. These compounds were then tested in a dose-response format against chloroquine resistant P. falciparum parasites (Dd2) and the resulting data were fit to a sigmoidal growth inhibition curve to determine EC50 values (Figure 5, Table 2). […] Inhibition of Pb-apPOL is a desired feature because it is likely that future in vivo studies will be performed in the mouse model for Malaria. […] The in vitro polymerase assays identified 5 compounds that were potent inhibitors of all three apicoplast polymerases and a single compound that inhibited Pf-apPOL and Bb-apPOL but not Pb-apPOL (Table 2). Finally, to determine if the compounds were killing the parasites solely via apicoplast disruption, the dose-response curves were also performed with 1 mM isopentylpyrophosphate (IPP) in the growth media (Table 2). […] At this time, it is unclear what the non-apicoplast target(s) may be. One intriguing possibility is that these compounds may be targeting both the apicoplast and the mitochondrial DNA polymerases. […]

Assay [2] concerns chloroquine resistant P. falciparum parasites (strain Dd2). In words: Parasite growth inhibition assay in human red blood cells (flow cytometry, acridine orange). Type of assay: cell-based. The settings on record: Plasmodium falciparum, Erythrocyte. The procedure: The chloroquine resistant P. falciparum parasites (strain Dd2) were cultured in de-identified, IRB-exempt human red blood cells (RBCs) obtained from the American Red Cross and parasite cultures were maintained as described. Parasitaemia (percentage of total RBCs infected) was measured by flow cytometry on an Attune NxT (ThermoFisher) by nucleic-acid staining of cultured RBCs with phosphate-buffered saline (PBS) containing 0.8 µg ml^−1 acridine orange. We began by determining percent growth inhibition at single compound dose (20 µM) for the 102 non-toxic compounds. […] The experiments were initiated with a starting parasitaemia of ∼1% and parasitaemia was measured 72 and 96 h post compound addition. Growth was normalised to parasite cultures with carrier only (DMSO).
(§2) We tested the ability of the 102 compounds to kill P. falciparum parasites cultured in human red blood cells. Due to the number of compounds, we used a single inhibitor concentration of 20 µM and performed experiments in triplicate. […] These compounds were then tested in a dose-response format against chloroquine resistant P. falciparum parasites (Dd2) and the resulting data were fit to a sigmoidal growth inhibition curve to determine EC50 values (Figure 5, Table 2). […] Finally, to determine if the compounds were killing the parasites solely via apicoplast disruption, the dose-response curves were also performed with 1 mM isopentylpyrophosphate (IPP) in the growth media (Table 2). […] Very little is known regarding mitochondrial DNA replication in P. falciparum; however, signal sequence identification algorithms have predicted that the other bacterial A-family DNA polymerase residing in P. falciparum is targeted to the mitochondria (PF3D7_0625300)[29]. […] We are currently in the process of cloning and expressing this putative mitochondrial DNA polymerase to determine the effect of these compounds on its activity.
For orientation: A flow cytometer gives signals particle by particle.

Assay [3] concerns the target Babesia bovis apicoplast DNA polymerase (Bb-apPOL). Nature of the assay: In vitro DNA polymerase inhibition assay, Bb-apPOL. Type of assay: biochemical. The settings on record: Table 2. As for the experimental part:
as §1, §2

[4] abbreviates: Dd2 parasites in human RBCs, dose-response, no IPP, read-out: EC50.
[5] abbreviates: Dd2 parasites, 1 mM isopentylpyrophosphate (IPP) in the growth media, read-out: EC50 + IPP.

Like-named read-outs stand apart in the source and are kept apart here.

For the molecule `CCOc1nc2cccc(C(=O)OC(C)OC(=O)OC3CCCCC3)c2n1Cc1ccc(-c2ccccc2-c2nnn[nH]2)cc1` (stereo not shown) [Molecule 94], the figures for the IC50 in assay [1] and in assay [3] were 13.9 ± 1.6 µM and 30 ± 3 µM, respectively. In addition, the EC50 in assay [2] (setting [4]) amounted to 4.6 ± 0.2 µM; in assay [2] (setting [5]) it was 3.7 ± 0.5 µM.

Turning to `COc1ccc(CNC(=O)Cn2nc3c(c2NC(=O)Cc2cccs2)CSC3)cc1` [Molecule 55], the half-inhibitory concentration (IC50) in assay [1] came to 51.9 ± 3.5 µM; in assay [3], 1.5 ± 1 µM. In addition, the EC50 in assay [2] (setting [4]) was 3.5 ± 0.3 µM; in assay [2] (setting [5]), 4.3 ± 0.2 µM.

Regarding `O=C(O)c1ccc(-c2nc3cc(-c4ccc5nc(-c6ccc(C(=O)O)cc6)[nH]c5c4)ccc3[nH]2)cc1` [Molecule 1], the results for the IC50 in assay [1] and in assay [3] were 7.1 ± 0.6 µM and 3.7 ± 0.2 µM, respectively. Besides, the concentration giving a half-maximal response (EC50) in assay [2] (setting [4]) was found to be 8.6 ± 0.4 µM; in assay [2] (setting [5]), 9.3 ± 0.5 µM.

For `OC(C#Cc1ccccc1)c1ccco1` (stereo not shown) [Molecule 95], the figures for the half-inhibitory concentration (IC50) in assay [1] and in assay [3] were 8.6 ± 0.7 µM and 2.5 ± 0.2 µM, respectively. The EC50 in assay [2] (setting [4]) was found to be 7.5 ± 0.5 µM; in assay [2] (setting [5]), 7.4 ± 0.4 µM.

These data come from publication PMC9090415, “Discovery of small molecule inhibitors of Plasmodium falciparum apicoplast DNA polymerase” (Journal of Enzyme Inhibition and Medicinal Chemistry, 2022).
